Assay [1] deals with T1, SFRP-1 (Homo sapiens, UniProt Q8N474).
T1 sequence (Q8N474 32-314): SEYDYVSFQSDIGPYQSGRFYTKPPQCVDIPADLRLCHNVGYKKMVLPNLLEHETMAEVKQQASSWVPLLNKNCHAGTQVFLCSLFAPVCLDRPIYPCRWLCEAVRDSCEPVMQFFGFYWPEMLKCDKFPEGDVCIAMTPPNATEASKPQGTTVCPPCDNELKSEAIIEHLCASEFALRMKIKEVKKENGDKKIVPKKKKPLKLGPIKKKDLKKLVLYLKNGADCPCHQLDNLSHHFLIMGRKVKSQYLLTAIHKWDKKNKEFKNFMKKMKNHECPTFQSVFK
In words: Cell-based assay for in vitro measurement of SFRP-1/SARP2 antagonist activity (U2OS cells co-transfected with 16x TCF-tk-Luciferase reporter, Wnt and hSFRP-1).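 As to all read-outs here: U2OS cells co-transfected with a TCF-tk luciferase reporter, a Wnt vector, hSFRP-1 or empty vector and CMV-βgal, luciferase luminescence read in cell lysates alongside βgal activity.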 To be noted: for fold induction at 10 µM: U2OS, read-out: Fold Induction with SFRP-1, U2OS cells, single dose 10 μM, luciferase reporter, fold induction over SFRP-1 control. For orientation: A reporter such as luciferase makes a cellular process visible.

For assay [2], the target named is T1, SFRP-1. In words: Fluorescence polarization binding assay (competitive displacement of a probe compound from SFRP-1).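 Also: test compound competes with a fluorescent probe held by SFRP-1, seen as a drop in probe anisotropy after incubation in darkness, with anisotropy as function of rising compound dose.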 To be noted: fluorescence anisotropy, 45 nM SFRP-1, 20 nM probe. (In general: Fluorescence polarisation rises when a labelled molecule tumbles more slowly, as on binding a larger partner.)

pEC50, pIC50: −log10 of the molar value.

For orientation: pEC50 means the negative decadic logarithm of the EC50, by convention in mol/L. A higher pEC50 goes with a low EC50. A word on the pIC50: it is the IC50 on a negative log10 scale, so that one unit is a factor of ten. A higher pIC50 goes with a small IC50.

Consider `CC(C)c1ccc(S(=O)(=O)c2ccccc2)cc1S(=O)(=O)NC1CCNCC1` [Example 924, 2-isopropyl-5-(phenylsulfonyl)-N-piperidin-4-ylbenzenesulfonamide], for which, in assay [1], the pEC50 was 5.72 and the fold induction at 10 µM was found to be 2.5. In assay [2], the pIC50 was 5.74.
Take `CCCc1ccc(S(=O)(=O)c2ccccc2)cc1S(=O)(=O)NC1CCNCC1` [Example 925, 5-(phenylsulfonyl)-N-piperidin-4-yl-2-propylbenzenesulfonamide]: in assay [1], the pEC50 is 5.67 and the fold induction at 10 µM was 3. The pIC50 in assay [2] was 5.10.
`CN(CCNS(=O)(=O)c1cc(S(=O)(=O)c2ccccc2)ccc1C(F)(F)F)C(=O)N[C@H]1CCN(C(=O)OC(C)(C)C)C1` [Example 926, tert-butyl (3S)-3-[({methyl[2-({[5-(phenylsulfonyl)-2-(trifluoromethyl)phenyl]sulfonyl}amino)ethyl]amino}carbonyl)amino]pyrrolidine-1-carboxylate]: in assay [1], the pEC50 is 5.87 and the fold induction at 10 µM was found to be 3.6. Further, the pIC50 in assay [2] was 6.30.
`CN(CCCNS(=O)(=O)c1cc(S(=O)(=O)c2ccccc2)ccc1C(F)(F)F)C(=O)OC(C)(C)C` [Example 927, tert-butyl methyl[3-({[5-(phenylsulfonyl)-2-(trifluoromethyl)phenyl]sulfonyl}amino)propyl]carbamate]: in assay [1], the pEC50 is 5.35 and the fold induction at 10 µM worked out at 2.1. Besides, the pIC50 in assay [2] was 5.62.
In the case of `Nc1ccc(CCNS(=O)(=O)c2cc(S(=O)(=O)c3ccccc3)ccc2C(F)(F)F)cc1` [Example 928, N-[2-(4-aminophenyl)ethyl]-5-(phenylsulfonyl)-2-(trifluoromethyl)benzenesulfonamide], in assay [1], the pEC50 was 6.42 and the fold induction at 10 µM came out at 3.9. In assay [2], the pIC50 is 6.74.
As to `CNCCCNS(=O)(=O)c1cc(S(=O)(=O)c2ccccc2)ccc1C(F)(F)F` [Example 929, N-[3-(methylamino)propyl]-5-(phenylsulfonyl)-2-(trifluoromethyl)benzenesulfonamide], in assay [1], the pEC50 was 5.48 and the fold induction at 10 µM came out at 2.9. Moreover, the pIC50 in assay [2] was 5.40.
On to `CC(C)(C)OC(=O)N1CCC(CCNS(=O)(=O)c2cc(S(=O)(=O)c3ccccc3)ccc2C(F)(F)F)CC1` [Example 931, tert-butyl 4-[2-({[5-(phenylsulfonyl)-2-(trifluoromethyl)phenyl]sulfonyl}amino)ethyl]piperidine-1-carboxylate], for which, in assay [1], the pEC50 was 5.89 and the fold induction at 10 µM amounted to 2.9. Further, the pIC50 in assay [2] was 5.40.
Take `COC(=O)C1CCCC(NS(=O)(=O)c2cc(S(=O)(=O)c3ccccc3)ccc2C(C)C)C1` (centres unmarked) [Example 932, methyl 3-({[2-isopropyl-5-(phenylsulfonyl)phenyl]sulfonyl}amino)cyclohexanecarboxylate]: in assay [1], the pEC50 was 5.73 and the fold induction at 10 µM was 2.8. This molecule showed a pIC50 in assay [2] of 5.52.
On to `COC(=O)C1CCC(NS(=O)(=O)c2cc(S(=O)(=O)c3ccccc3)ccc2C(C)C)CC1` (centres unmarked) [Example 933, methyl 4-({[2-isopropyl-5-(phenylsulfonyl)phenyl]sulfonyl}amino)cyclohexanecarboxylate], for which, in assay [1], the pEC50 was 5.76 and the fold induction at 10 µM came to 2.5. The pIC50 in assay [2] is 5.22.
`COC(=O)[C@H]1CC[C@H](CNS(=O)(=O)c2cc(S(=O)(=O)c3ccccc3)ccc2C(C)C)CC1` [Example 934, methyl trans-4-[({[2-isopropyl-5-(phenylsulfonyl)phenyl]sulfonyl}amino)methyl]cyclohexanecarboxylate]: in assay [1], the pEC50 is 5.56 and the fold induction at 10 µM worked out at 2.3. The pIC50 in assay [2] was 5.55.
For the molecule `CC(C)c1ccc(S(=O)(=O)c2ccccc2)cc1S(=O)(=O)NC1CC(C)(C)NC(C)(C)C1` [Example 935, 2-isopropyl-5-(phenylsulfonyl)-N-(2,2,6,6-tetramethylpiperidin-4-yl)benzenesulfonamide], in assay [1], the pEC50 is 5.60 and the fold induction at 10 µM amounted to 2.5. In assay [2], the pIC50 was 5.15.
Take `CC(C)c1ccc(S(=O)(=O)c2ccccc2)cc1S(=O)(=O)NCc1ccncc1` [Example 936, 2-isopropyl-5-(phenylsulfonyl)-N-(pyridin-4-ylmethyl)benzenesulfonamide]: in assay [1], the pEC50 is 5.74 and the fold induction at 10 µM was 2.7. In addition, in assay [2], the pIC50 is 5.52.
For `CN(CCNS(=O)(=O)c1cc(S(=O)(=O)c2ccccc2)ccc1C(F)(F)F)C(=O)N[C@H]1CCNC1` [Example 937, N-[2-(methyl{[(3S)-pyrrolidin-3-ylamino]carbonyl}amino)ethyl]-5-(phenylsulfonyl)-2-(trifluoromethyl)benzenesulfonamide], in assay [1], the pEC50 is 5.64 and the fold induction at 10 µM stood at 2.8. In assay [2], this molecule gave a pIC50 of 5.77.
Consider `COC(=O)c1cccc(S(=O)(=O)N2CCC(NS(=O)(=O)c3cc(S(=O)(=O)c4ccccc4)ccc3C(F)(F)F)CC2)c1` [Example 938, methyl 3-{[4-({[5-(phenylsulfonyl)-2-(trifluoromethyl)phenyl]sulfonyl}amino)piperidin-1-yl]sulfonyl}benzoate], for which, in assay [1], the pEC50 is 6.07 and the fold induction at 10 µM was 4.4. Also, in assay [2], the negative logarithm of the IC50 (pIC50) is 6.05.
As for `COc1ccc(CCNS(=O)(=O)c2cc(S(=O)(=O)c3ccccc3)ccc2C(F)(F)F)cc1` [Example 939, N-[2-(4-methoxyphenyl)ethyl]-5-(phenylsulfonyl)-2-(trifluoromethyl)benzenesulfonamide], the fold induction at 10 µM in assay [1] was found to be 2.2. The molecule also gave a pIC50 in assay [2] of 6.15.
Consider `O=S(=O)(NCCC1CCNCC1)c1cc(S(=O)(=O)c2ccccc2)ccc1C(F)(F)F` [Example 940, 5-(phenylsulfonyl)-N-(2-piperidin-4-ylethyl)-2-(trifluoromethyl)benzenesulfonamide], for which, in assay [1], the pEC50 was 5.64 and the fold induction at 10 µM was 4.1. This molecule also gave a pIC50 in assay [2] of 5.96.
For `O=C(O)CN1CCC(CNS(=O)(=O)c2cc(S(=O)(=O)c3ccccc3)ccc2C(F)(F)F)CC1` [Example 941, {4-[({[5-(phenylsulfonyl)-2-(trifluoromethyl)phenyl]sulfonyl}amino)methyl]piperidin-1-yl}acetic acid], in that order: 5.87, 3.2 and 6.15.
With `Nc1ccc(CNS(=O)(=O)c2cc(S(=O)(=O)c3ccccc3)ccc2C(F)(F)F)cc1` [Example 942, N-(4-aminobenzyl)-5-(phenylsulfonyl)-2-(trifluoromethyl)benzenesulfonamide], in assay [1], the pEC50 was 6.68 and the fold induction at 10 µM turned out to be 3.8. This molecule had a pIC50 in assay [2] of 6.72.
For `O=S(=O)(NCCc1ccc(O)cc1)c1cc(S(=O)(=O)c2ccccc2)ccc1C(F)(F)F` [Example 943, N-[2-(4-hydroxyphenyl)ethyl]-5-(phenylsulfonyl)-2-(trifluoromethyl)benzenesulfonamide], in assay [1], the pEC50 is 6.24 and the fold induction at 10 µM amounted to 3.4. For the same molecule, the pIC50 in assay [2] was 6.40.
For `O=C(O)CN1CCC(CCNS(=O)(=O)c2cc(S(=O)(=O)c3ccccc3)ccc2C(F)(F)F)CC1` [Example 944, {4-[2-({[5-(phenylsulfonyl)-2-(trifluoromethyl)phenyl]sulfonyl}amino)ethyl]piperidin-1-yl}acetic acid], in that order: 5.84, 2.9 and 5.77.
For `COC(=O)C1CCCC(NS(=O)(=O)c2cc(S(=O)(=O)c3ccccc3)ccc2C(F)(F)F)C1` (centres unmarked) [Example 945, methyl 3-({[5-(phenylsulfonyl)-2-(trifluoromethyl)phenyl]sulfonyl}amino)cyclohexanecarboxylate], in that order: 5.95, 2.9 and 6.05.
In the case of `COC(=O)C1CCC(NS(=O)(=O)c2cc(S(=O)(=O)c3ccccc3)ccc2C(F)(F)F)CC1` (centres unmarked) [Example 946, methyl 4-({[5-(phenylsulfonyl)-2-(trifluoromethyl)phenyl]sulfonyl}amino)cyclohexanecarboxylate], in assay [1], the pEC50 was 5.84 and the fold induction at 10 µM came to 3. The same molecule had a pIC50 in assay [2] of 6.30.
As to `COC(=O)[C@H]1CC[C@H](CNS(=O)(=O)c2cc(S(=O)(=O)c3ccccc3)ccc2C(F)(F)F)CC1` [Example 947, methyl trans-4-[({[5-(phenylsulfonyl)-2-(trifluoromethyl)phenyl]sulfonyl}amino)methyl]cyclohexanecarboxylate], in assay [1], the pEC50 is 6.16 and the fold induction at 10 µM came out at 3.2. The same molecule showed a pIC50 in assay [2] of 6.40.
The matching figures for `CC1(C)CC(NS(=O)(=O)c2cc(S(=O)(=O)c3ccccc3)ccc2C(F)(F)F)CC(C)(C)N1` [Example 948, 5-(phenylsulfonyl)-N-(2,2,6,6-tetramethylpiperidin-4-yl)-2-(trifluoromethyl)benzenesulfonamide]: 5.56, 2.4 and 5.22.
For the molecule `O=S(=O)(NCc1ccncc1)c1cc(S(=O)(=O)c2ccccc2)ccc1C(F)(F)F` [Example 949, 5-(phenylsulfonyl)-N-(pyridin-4-ylmethyl)-2-(trifluoromethyl)benzenesulfonamide], in assay [1], the pEC50 is 6.00 and the fold induction at 10 µM was 3.2. The same molecule had a pIC50 in assay [2] of 6.10.

The record behind these values is patent US20060276464A1, “Diarylsulfone sulfonamides and use thereof” (Wyeth, priority 2005, published 2006).
